Where a SMILES comes first, the peptide text is derived from it.
What was measured:
laminin 332 = conditions: reported in WO 2011/040082; cited from earlier work
transglutaminase 1 = assay: Gene expression test using normal human epidermal keratinocytes (RT-PCR), transglutaminase 1; type: cell-based; conditions: 48 hours, relative value to control
Procedure: (§1) Normal human epidermal keratinocytes (Kurabo Industries Ltd.) were cultured with HuMedia KG2 (Kurabo Industries Ltd.) at 37° C. and 5% CO2 under saturated vapor. Cells that have become confluent were seeded in a 6-well plate with a seeding density of 3.0×10^5 (cells/well).
(§2) For each evaluation sample, each D-amino acid adjusted in the culture medium so as to be 100 μM or 500 μM was used. On the next day of seeding, each evaluation sample was adjusted to be 100 μM or 500 μM, and each well culture medium was exchanged. Culturing was performed for 48 hours, RNA was extracted from the cells using RN easy mini kit (Qiagen), which was synthesized into cDNA using High-Capacity cDNA Reverse Transcription Kit with RNase Inhibitor (Thermo Fisher). With this cDNA as a template, a sample added group and a control group were compared with each other by the RT-PCR method (7500 fast system (Thermo Fisher)) to evaluate gene expression amounts of filaggrin, involucrin, loricrin, keratin 10, and transglutaminase 1. In Table 4, FLG, IVL, K10, LOR, and TGM indicate filaggrin, involucrin, keratin 10, loricrin, and transglutaminase 1, respectively.

involucrin = assay: Gene expression test using normal human epidermal keratinocytes (RT-PCR), involucrin; type: cell-based; conditions: Keratinocyte, 48 hours, relative value to control, read-out: IVL (involucrin) gene expression amount
Procedure: as §1, §2

keratin 10 = assay: Gene expression test using normal human epidermal keratinocytes (RT-PCR), keratin 10; type: cell-based; conditions: Keratinocyte, 48 hours, relative value to control, read-out: K10 (keratin 10) gene expression amount
Procedure: as §1, §2

filaggrin = assay: Gene expression test using normal human epidermal keratinocytes (RT-PCR), filaggrin; type: cell-based; conditions: Keratinocyte, 48 hours, relative value to control, read-out: FLG (filaggrin) gene expression amount
Procedure: as §1, §2

[1] = tested on: filaggrin, involucrin, loricrin, keratin 10, and transglutaminase 1; assay: Gene expression test using normal human epidermal keratinocytes, text summary over the target genes; type: cell-based; conditions: 100 μM or 500 μM, summary of Table 4; for expression amounts of the respective target genes: all five target genes
Procedure: as §1, §2

loricrin = assay: Gene expression test using normal human epidermal keratinocytes (RT-PCR), loricrin; type: cell-based; conditions: 48 hours, relative value to control
Procedure: as §1, §2

[2] = orally administered; cited filing; cited from earlier work
[3] = JP 2012-006870; determined only by the subjectivity of subjects; cited from earlier work
[4] = tested on: filaggrin, involucrin, transglutaminase 1, keratin 10, and loricrin; conditions: cited from earlier work

SMILES | laminin 332 production promotion effect (laminin 332) | TGM (transglutaminase 1) gene expression amount (transglutaminase 1; 100 μM) | fold induction at 100 µM (involucrin) | fold induction at 500 µM (involucrin) | fold induction at 100 µM (keratin 10) | fold induction at 500 µM (keratin 10) | fold induction at 100 µM (filaggrin) | fold induction at 500 µM (filaggrin) | expression amounts of the respective target genes of filaggrin, involucrin, keratin 10, and transglutaminase 1 [1] | LOR (loricrin) gene expression amount (loricrin; 500 μM) | expression amounts of the respective target genes of filaggrin, involucrin, keratin 10, and loricrin [1] | TGM (transglutaminase 1) gene expression amount (transglutaminase 1; 500 μM) | LOR (loricrin) gene expression amount (loricrin; 100 μM) | expression amounts of the respective target genes [1] | TEWL value [2] | moisture retaining effect [3] | expression promotion action of moisture retention-related proteins such as filaggrin ([4]; applicant's assessment of the prior art) | expression of filaggrin, involucrin, transglutaminase 1, keratin 10, and loricrin ([4]; reported in WO 2014/175001 and JP 2012-232920)
C[C@@H](N)C(=O)O [D-Ala, D-alanine] | promote the production of laminin 332 | 1.20 | 1.28 | 1.15 | 1.47 | 1.21 | 1.23 | 1.18 | increases |  |  |  |  |  |  |  |  | 
NC(=O)C[C@@H](N)C(=O)O [D-Asn, D-asparagine] |  |  |  | 1.34 |  | 1.21 |  | 1.55 |  | 1.80 | increases |  |  |  |  |  |  | 
N[C@H](CC(=O)O)C(=O)O [D-Asp, D-aspartic acid] | not expressed | 1.13 | 1.49 | 1.42 | 2.43 | 2.1 | 1.35 | 1.45 |  | 2.10 |  | 1.20 | 2.34 | increases |  |  |  | 
N[C@H](CCC(=O)O)C(=O)O [D-Glu, D-glutamic acid] |  |  |  | 1.34 |  | 1.25 |  | 1.69 |  | 2.07 |  | 1.13 |  | increases | reduces |  |  | 
NCCCC[C@@H](N)C(=O)O [D-Lys, D-lysine] |  | 1.12 | 1.27 | 1.72 | 1.35 | 2.16 | 1.48 | 1.29 |  | 1.39 |  |  | 2.02 | increases |  | expressed |  | 
N[C@H](Cc1ccccc1)C(=O)O [D-Phe, D-phenylalanine] |  |  |  | 1.32 |  | 1.32 |  | 1.52 |  | 1.78 |  | 1.26 |  | increases |  |  |  | 
N[C@H](Cc1c[nH]c2ccccc12)C(=O)O [D-Trp, D-tryptophan] |  | 1.42 | 2.05 | 2.43 | 2.44 | 3.43 | 1.77 | 3.3 |  | 3.45 |  | 1.50 | 1.71 | increases |  |  |  | 
CC[C@H](C)[C@@H](N)C(=O)O [D-allo-Ile, D-allo-isoleucine] |  |  | 1.18 | 1.13 | 1.31 | 1.41 | 1.3 | 1.21 |  |  |  | 1.27 | 1.31 | increases |  |  |  | 
O=C(O)[C@H]1C[C@H](O)CN1 [D-hydroxyproline, reference compound] | promote the production of laminin 332 |  |  |  |  |  |  |  |  |  |  |  |  |  |  |  |  | 
NCCCC[C@H](N)C(=O)O [L-lysine, reference compound] |  |  |  |  |  |  |  |  |  |  |  |  |  |  |  | expressed |  | 
NCC(=O)N1CCC[C@H]1C(=O)O [glycylproline] (H-Gly-Pro-OH) |  |  |  |  |  |  |  |  |  |  |  |  |  |  |  |  | weak | promoted

Source: patent publication US20200016058A1, “HORNY LAYER FUNCTION IMPROVING AGENT” (Ajinomoto Co., Inc., priority 2017, published 2020)
